From ChEMBL document CHEMBL1909046, “DrugMatrix in vitro pharmacology data”

Key:
[1] = target: Beta-1 adrenergic receptor (Homo sapiens, UniProt P08588); assay: DRUGMATRIX: Adrenergic beta1 radioligand binding (ligand: [125I] Cyanopindolol); type: cell membranes, CHO-K1, Membrane; conditions: Not Active = under 50% inhibition at 10 µM
Calcitonin receptor = target: T1, Calcitonin receptor (Homo sapiens, UniProt P30988); type: cell membranes, Membrane; conditions: t47d; further: in other assays of this panel Not Active means under 50% inhibition at 10 µM
T1 sequence (P30988 whole entry): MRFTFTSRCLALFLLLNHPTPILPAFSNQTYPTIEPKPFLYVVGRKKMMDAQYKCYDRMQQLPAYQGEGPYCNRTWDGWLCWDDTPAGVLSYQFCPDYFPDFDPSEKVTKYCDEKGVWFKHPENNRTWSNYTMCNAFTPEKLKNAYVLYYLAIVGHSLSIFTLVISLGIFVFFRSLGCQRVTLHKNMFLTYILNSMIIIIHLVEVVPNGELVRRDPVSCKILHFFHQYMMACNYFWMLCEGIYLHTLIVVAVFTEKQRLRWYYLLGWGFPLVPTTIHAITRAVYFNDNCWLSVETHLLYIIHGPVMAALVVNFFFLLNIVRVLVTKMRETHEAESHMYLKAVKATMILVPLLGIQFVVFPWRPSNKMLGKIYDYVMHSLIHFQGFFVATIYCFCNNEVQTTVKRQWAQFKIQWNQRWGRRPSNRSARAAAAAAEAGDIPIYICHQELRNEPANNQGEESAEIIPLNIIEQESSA

[2] = DRUGMATRIX: Calcium Channel Type L, Dihydropyridine radioligand binding (ligand: [3H] Nitrendipine); type: cell membranes, Rattus norvegicus, Wistar, Cerebral cortex, Membrane; conditions: Not Active = under 50% inhibition at 10 µM
Vasopressin V1a receptor = Vasopressin V1a receptor (Homo sapiens, UniProt P37288); type: cell membranes, Membrane; conditions: hek293; further: in other assays of this panel Not Active means under 50% inhibition at 10 µM
Chain of Vasopressin V1a receptor (P37288 whole entry): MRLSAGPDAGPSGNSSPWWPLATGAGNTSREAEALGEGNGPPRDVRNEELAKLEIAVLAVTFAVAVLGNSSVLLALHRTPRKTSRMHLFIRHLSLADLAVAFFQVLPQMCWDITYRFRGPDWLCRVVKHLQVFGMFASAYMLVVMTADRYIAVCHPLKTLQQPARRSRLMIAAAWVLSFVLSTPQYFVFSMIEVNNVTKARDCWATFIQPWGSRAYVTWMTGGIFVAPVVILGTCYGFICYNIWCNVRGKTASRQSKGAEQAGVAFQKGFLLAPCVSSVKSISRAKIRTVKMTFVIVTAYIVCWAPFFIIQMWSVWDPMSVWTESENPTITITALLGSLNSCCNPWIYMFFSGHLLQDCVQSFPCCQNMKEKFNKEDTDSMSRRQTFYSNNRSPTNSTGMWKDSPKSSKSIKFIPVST

[3] = target: T2, C-C chemokine receptor type 4 (Homo sapiens, UniProt P51679); type: cell membranes, Chem-1, Membrane; conditions: chem-1; further: in other assays of this panel Not Active means under 50% inhibition at 10 µM
T2 sequence (P51679 whole entry): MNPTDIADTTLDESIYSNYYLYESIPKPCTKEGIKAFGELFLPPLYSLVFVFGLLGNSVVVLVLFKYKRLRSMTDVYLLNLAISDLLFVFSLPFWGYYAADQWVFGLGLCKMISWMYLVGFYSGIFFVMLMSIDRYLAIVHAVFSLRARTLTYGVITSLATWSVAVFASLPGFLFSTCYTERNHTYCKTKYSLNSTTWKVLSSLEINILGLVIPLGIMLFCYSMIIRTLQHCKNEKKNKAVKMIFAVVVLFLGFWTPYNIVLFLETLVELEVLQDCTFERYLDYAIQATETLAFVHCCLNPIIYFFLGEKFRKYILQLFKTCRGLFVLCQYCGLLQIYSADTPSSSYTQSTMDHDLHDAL

[4] = target: Receptor tyrosine-protein kinase erbB-2 (Homo sapiens, UniProt P04626); assay: biochemical; type: cell-based, Insect cells;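 further: inhibition of HER2 kinase enzyme activity, measured with Poly(Glu:Tyr) as the phosphorylation substrate; in other assays of this panel Not Active means under 50% inhibition at 10 µM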

Chain of Beta-1 adrenergic receptor (P08588 whole entry): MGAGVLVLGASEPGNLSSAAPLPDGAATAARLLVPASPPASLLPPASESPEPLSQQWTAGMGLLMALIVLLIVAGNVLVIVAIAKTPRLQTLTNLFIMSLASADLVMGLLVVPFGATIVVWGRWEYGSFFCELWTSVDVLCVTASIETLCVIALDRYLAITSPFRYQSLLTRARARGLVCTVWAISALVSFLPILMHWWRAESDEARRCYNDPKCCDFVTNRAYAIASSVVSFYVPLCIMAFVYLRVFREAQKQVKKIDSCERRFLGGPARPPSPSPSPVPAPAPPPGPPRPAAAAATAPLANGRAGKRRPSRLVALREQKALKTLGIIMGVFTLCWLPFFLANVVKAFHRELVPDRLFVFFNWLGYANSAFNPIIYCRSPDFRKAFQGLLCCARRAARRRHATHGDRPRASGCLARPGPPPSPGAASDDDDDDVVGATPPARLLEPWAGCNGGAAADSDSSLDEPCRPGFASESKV

CSc1ccc(/C=C2/C(C)=C(CC(=O)O)c3cc(F)ccc32)cc1 [SULINDAC SULFIDE]
Not Active: IC50 ([1]; cho-k1) | IC50 (Calcitonin receptor) | IC50 [2] | Ki [2] | IC50 (Vasopressin V1a receptor) | IC50 [3] | IC50 ([4]; insect cells)

Nc1c2c(nc3ccccc13)CCCC2 [TACRINE]
Not Active: IC50 ([1]; cho-k1) | IC50 (Calcitonin receptor) | IC50 [2] | Ki [2] | IC50 (Vasopressin V1a receptor) | IC50 [3] | IC50 ([4]; insect cells)

CN1CCN(CCCN2c3ccccc3Sc3ccc(Cl)cc32)CC1 [PROCHLORPERAZINE]
Not Active: IC50 ([1]; cho-k1) | IC50 (Calcitonin receptor) | IC50 (Vasopressin V1a receptor) | IC50 [3] | IC50 ([4]; insect cells)

N[C@@H](Cc1ccc(O)c(O)c1)C(=O)O [LEVODOPA]
Not Active: IC50 ([1]; cho-k1) | IC50 (Calcitonin receptor) | IC50 [2] | Ki [2] | IC50 (Vasopressin V1a receptor) | IC50 [3] | IC50 ([4]; insect cells)

O=NN(CCCl)C(=O)NC1CCCCC1 [LOMUSTINE]
Not Active: IC50 ([1]; cho-k1) | IC50 (Calcitonin receptor) | IC50 [2] | Ki [2] | IC50 (Vasopressin V1a receptor) | IC50 [3] | IC50 ([4]; insect cells)

Cc1c(C)c2c(c(C)c1O)CCC(C)(COc1ccc(CC3SC(=O)NC3=O)cc1)O2 (configuration not stated) [TROGLITAZONE]
Not Active: IC50 ([1]; cho-k1) | IC50 (Calcitonin receptor) | IC50 [2] | Ki [2] | IC50 (Vasopressin V1a receptor) | IC50 [3] | IC50 ([4]; insect cells)

CCOC(=O)N1CCC(=C2c3ccc(Cl)cc3CCc3cccnc32)CC1 [LORATADINE]
Not Active: IC50 ([1]; cho-k1) | IC50 (Calcitonin receptor) | IC50 [2] | Ki [2] | IC50 (Vasopressin V1a receptor) | IC50 [3] | IC50 ([4]; insect cells)

Cc1cccc(N(C)C(=S)Oc2ccc3ccccc3c2)c1 [TOLNAFTATE]
Not Active: IC50 ([1]; cho-k1) | IC50 (Calcitonin receptor) | IC50 [2] | Ki [2] | IC50 (Vasopressin V1a receptor) | IC50 [3] | IC50 ([4]; insect cells)

NC[C@H]1CC[C@H](C(=O)O)CC1 [TRANEXAMIC ACID]
Not Active: IC50 ([1]; cho-k1) | IC50 (Calcitonin receptor) | IC50 [2] | Ki [2] | IC50 (Vasopressin V1a receptor) | IC50 [3] | IC50 ([4]; insect cells)

CC[C@@H](CO)NC(=O)[C@@H]1C=C2c3cccc4[nH]cc(c34)C[C@H]2N(C)C1 [METHYLERGONOVINE]
Not Active: IC50 (Calcitonin receptor) | IC50 [2] | Ki [2] | IC50 (Vasopressin V1a receptor) | IC50 [3] | IC50 ([4]; insect cells)

c1ccc([C@H]2CN3CCSC3=N2)cc1 [LEVAMISOLE]
Not Active: IC50 ([1]; cho-k1) | IC50 (Calcitonin receptor) | IC50 [2] | Ki [2] | IC50 (Vasopressin V1a receptor) | IC50 [3] | IC50 ([4]; insect cells)

OCCN(CCO)c1nc(N2CCCCC2)c2nc(N(CCO)CCO)nc(N3CCCCC3)c2n1 [DIPYRIDAMOLE]
Not Active: IC50 ([1]; cho-k1) | IC50 (Calcitonin receptor) | IC50 [2] | Ki [2] | IC50 (Vasopressin V1a receptor) | IC50 [3] | IC50 ([4]; insect cells)

CC(C)(C)NC(=O)[C@@H]1C[C@@H]2CCCC[C@@H]2CN1C[C@@H](O)[C@H](Cc1ccccc1)NC(=O)[C@H](CC(N)=O)NC(=O)c1ccc2ccccc2n1
Not Active: IC50 ([1]; cho-k1) | IC50 (Calcitonin receptor) | IC50 [2] | Ki [2] | IC50 [3] | IC50 ([4]; insect cells)

Nc1nc2nc[nH]c2c(=S)[nH]1 [THIOGUANINE]
Not Active: IC50 ([1]; cho-k1) | IC50 (Calcitonin receptor) | IC50 [2] | Ki [2] | IC50 (Vasopressin V1a receptor) | IC50 [3] | IC50 ([4]; insect cells)

SODIUM NITROPRUSSIDE
Not Active: IC50 ([1]; cho-k1) | Ki ([1]; cho-k1) | IC50 (Calcitonin receptor) | Ki (Calcitonin receptor) | IC50 [2] | Ki [2] | IC50 (Vasopressin V1a receptor) | Ki (Vasopressin V1a receptor) | IC50 [3] | Ki [3] | IC50 ([4]; insect cells) | Ki ([4]; insect cells)

CC/C(=C(\c1ccccc1)c1ccc(OCCN(C)C)cc1)c1ccccc1 [TAMOXIFEN]
Not Active: IC50 (Calcitonin receptor) | IC50 (Vasopressin V1a receptor) | IC50 [3]
9.98 µM: Ki ([1]; read-out: Ki)
2.95 µM: IC50 ([4]; read-out: IC50)
17.3 µM: IC50 ([1]; read-out: IC50)
